These results are taken from patent US20180306775A1, “Portable Sampling Device and Method for Sampling Drug Substances From Exhaled Breath” (Sensa Bues AB, priority 2011, published 2018).

Holding throughout (type): in vivo, human
Data set [1] is described as follows: Sampling of methadone from exhaled breath using electrostatic filter membrane (250 g/m2 non-woven layer, two carriers). The note with it: for Methadone Range: range among subjects. The procedure:
(§1) Sampling of drugs of abuse from exhaled human breath using filter membrane.
The tests were performed at 4 different occasions.

Data set [2] is described as follows: Pre-study: sampling of methadone in breath using variable densities of the electrostatic filter membrane. The note with it: exhaled breath, n=5; for Methadone Range: range among subjects.
Excerpt: as §1
Type is the density of the non-woven layer at each test, the other headlines are the same as for table 1.

Data set [3] can be described thus: Sampling of methadone in exhaled breath with constructed sampler (tubular section with baffles), two filter thicknesses. The note with it: for Constructed sampler Methadone Range: n=5.
Excerpt: as §1
The subject exhales through the tubular section comprising baffles to trapping large particles and saliva.

The mark [4] stands for this setting: filter diameter 32 mm, sampling time 1 min, n=6.
[5] abbreviates: filter diameter 32 mm, sampling time 3 min, n=5 (one of 4 occasions).
Where [6] appears, read: filter diameter 32 mm, sampling time 3 min, n=6 (one of 4 occasions).
The mark [7] stands for this setting: filter diameter 47 mm, sampling time 3 min, n=6.

As for `CCC(=O)C(CC(C)N(C)C)(c1ccccc1)c1ccccc1` (stereo not drawn) [Methadone, methadone], the “Methadone pg/min mean ± SD” value in data set [1] (setting [4]) stood at 204 ± 116 pg/min; in data set [1] (setting [5]), 112 ± 89 pg/min; in data set [1] (setting [6]), 92 ± 62 pg/min; in data set [1] (setting [7]), 86 ± 52 pg/min; in data set [2] (filter type (density of non-woven layer) 150 g/m2), 74.4 ± 80.4 pg/min; in data set [2] (filter type (density of non-woven layer) 250 g/m2), 71.0 ± 90.1 pg/min. Besides, the “Methadone pg/min mean ± SD” value in data set [2] (filter type (density of non-woven layer) 300 g/m2) is reported as 91.8 ± 110 pg/min. For the same molecule, the “Methadone Range” value in data set [1] (setting [4]) was 21 to 326 pg/min; in data set [1] (setting [5]), 47 to 266 pg/min; in data set [1] (setting [6]), 28 to 199 pg/min; in data set [1] (setting [7]) it was 18 to 168 pg/min; in data set [2] (filter type 150 g/m2), 24 to 216 pg/min; in data set [2] (filter type 250 g/m2), 19 to 231 pg/min. Also, the “Methadone Range” value in data set [2] (filter type 300 g/m2) fell in the range of 20 to 287 pg/min. Moreover, the “Constructed sampler Methadone pg/min mean ± SD” value was found to be 40 ± 27 pg/min in data set [3] (filter thickness 1, n=5) and 42 ± 28 pg/min in data set [3] (filter thickness 2, n=5). The “Constructed sampler Methadone Range” value in data set [3] (filter thickness 1, range among subjects) lay in the range of 12 to 85 pg/min; in data set [3] (filter thickness 2, range among subjects) it was 17 to 90 pg/min.
